Measured values from ChEMBL document CHEMBL3885861, “Open TG-GATES”.

Organism: Rattus norvegicus
Test: Open TG-GATES - Regimen: Single
Assay type: toxicity, organism-based, Sprague-Dawley
Design: regimen Single, gender Male, age 6 weeks
Details: in vivo, po, route gavage; for TP / gamma-GTP / ALT / AST / BUN / CRE / DBIL / GLC / IP / K / LDH / RALB / TBIL / TC / ALP / PL: tissue Plasma; for APTT / Bas / Eos / Fbg / Ht / Lym / MCHC / MCV / Mono / PT / Plat / RBC / Ret / WBC: tissue Blood; for KIDNEY_L / KIDNEY_R / KIDNEY_TOTAL: tissue Kidney; for LIVER: tissue Liver
[1] = 30 mg/kg, 3 h, dose level Middle
[2] = 30 mg/kg, 6 h, dose level Middle
[3] = 30 mg/kg, 9 h, dose level Middle
[4] = 30 mg/kg, 24 h, dose level Middle
[5] = 100 mg/kg, 3 h, dose level High
[6] = 100 mg/kg, 6 h, dose level High
[7] = 100 mg/kg, 9 h, dose level High
[8] = 100 mg/kg, 24 h, dose level High

CN(C)CCCN1c2ccccc2CCc2ccccc21 [IMIPRAMINE]
TP (10 mg/kg, 24 h, dose level Low): 5.4 g/dL | gamma-GTP (10 mg/kg, 24 h, dose level Low): 1 IU/L | TERMINAL_BW [1]: 202.2 g | APTT [1]: 16.3 s | Bas [1]: 0.2% | Eos [1]: 1% | Fbg [1]: 313 mg/dL | Ht [1]: 42.7% | Lym [1]: 78.8% | MCHC [1]: 32.4% | MCV [1]: 65.8 fL | Mono [1]: 3% | PT [1]: 15.6 s | Plat [1]: 106.2 x10_4/uL | RBC [1]: 651.2 x10_4/ul | Ret [1]: 8.1% | WBC [1]: 75.9 x10_2/uL | KIDNEY_L [1]: 0.9 g | KIDNEY_R [1]: 0.9 g | KIDNEY_TOTAL [1]: 1.8 g | LIVER [1]: 9.5 g | ALT [1]: 43.4 IU/L | AST [1]: 70.2 IU/L | BUN [1]: 7.8 mg/dL | CRE [1]: 0.1 mg/dL | DBIL [1]: 0.008 mg/dL | GLC [1]: 191.6 mg/dL | IP [1]: 9.1 mg/dL | K [1]: 4 meq/L | LDH [1]: 88.4 IU/L | RALB [1]: 2.6 g/dL | TBIL [1]: 0.058 mg/dL | TC [1]: 79.2 mg/dL | TP [1]: 5.6 g/dL | gamma-GTP [1]: 1 IU/L | TERMINAL_BW [2]: 198.5 g | APTT [2]: 16.1 s | Bas [2]: 0% | Eos [2]: 1% | Fbg [2]: 311.6 mg/dL | Ht [2]: 41.9% | Lym [2]: 72.6% | MCHC [2]: 32.7% | MCV [2]: 63.9 fL | Mono [2]: 3.2% | PT [2]: 15.7 s | Plat [2]: 122.8 x10_4/uL | RBC [2]: 656 x10_4/ul | Ret [2]: 7.6% | WBC [2]: 81.3 x10_2/uL | KIDNEY_L [2]: 0.9 g | KIDNEY_R [2]: 0.9 g | KIDNEY_TOTAL [2]: 1.8 g | ALP [2]: 1270.6 IU/L | ALT [2]: 40.2 IU/L | AST [2]: 72.8 IU/L | BUN [2]: 6.2 mg/dL | CRE [2]: 0.1 mg/dL | DBIL [2]: 0.01 mg/dL | GLC [2]: 177.4 mg/dL | IP [2]: 9.8 mg/dL | K [2]: 4.1 meq/L | LDH [2]: 138.2 IU/L | RALB [2]: 2.5 g/dL | TBIL [2]: 0.062 mg/dL | TC [2]: 81.2 mg/dL | TP [2]: 5.4 g/dL | gamma-GTP [2]: 1.4 IU/L | TERMINAL_BW [3]: 197.4 g | APTT [3]: 15.4 s | Bas [3]: 0% | Eos [3]: 1% | Fbg [3]: 290.8 mg/dL | Ht [3]: 42.1% | Lym [3]: 78.4% | MCHC [3]: 32.5% | MCV [3]: 65.8 fL | Mono [3]: 1.8% | PT [3]: 15.8 s | Plat [3]: 111.8 x10_4/uL | RBC [3]: 639.4 x10_4/ul | Ret [3]: 7.8% | WBC [3]: 69.2 x10_2/uL | KIDNEY_L [3]: 0.9 g | KIDNEY_R [3]: 1 g | KIDNEY_TOTAL [3]: 1.9 g | LIVER [3]: 8.4 g | ALP [3]: 1205.4 IU/L | ALT [3]: 35.8 IU/L | AST [3]: 65.2 IU/L | BUN [3]: 5.8 mg/dL | CRE [3]: 0.1 mg/dL | DBIL [3]: 0.01 mg/dL | GLC [3]: 191 mg/dL | IP [3]: 9.6 mg/dL | K [3]: 4.1 meq/L | LDH [3]: 64.6 IU/L | PL [3]: 131.2 mg/dL | RALB [3]: 2.5 g/dL | TBIL [3]: 0.06 mg/dL | TC [3]: 68 mg/dL | TP [3]: 5.3 g/dL | gamma-GTP [3]: 0.8 IU/L | TERMINAL_BW [4]: 209.9 g | APTT [4]: 16.1 s | Bas [4]: 0% | Eos [4]: 1% | Fbg [4]: 298.2 mg/dL | Ht [4]: 41.7% | Lym [4]: 82% | MCHC [4]: 32.6% | MCV [4]: 64.6 fL | Mono [4]: 2.4% | PT [4]: 16.5 s | Plat [4]: 119.3 x10_4/uL | RBC [4]: 644.8 x10_4/ul | Ret [4]: 7.6% | WBC [4]: 75.5 x10_2/uL | KIDNEY_L [4]: 0.9 g | KIDNEY_R [4]: 0.9 g | KIDNEY_TOTAL [4]: 1.8 g | LIVER [4]: 9.2 g | ALP [4]: 1509.8 IU/L | ALT [4]: 45.6 IU/L | AST [4]: 69.6 IU/L | CRE [4]: 0.2 mg/dL | GLC [4]: 177 mg/dL | IP [4]: 7.8 mg/dL | K [4]: 4.2 meq/L | LDH [4]: 101.8 IU/L | RALB [4]: 2.7 g/dL | TBIL [4]: 0.06 mg/dL | TC [4]: 85.2 mg/dL | TP [4]: 5.6 g/dL | gamma-GTP [4]: 1 IU/L | TERMINAL_BW [5]: 202.6 g | APTT [5]: 16.3 s | Bas [5]: 0% | Eos [5]: 0.5% | Fbg [5]: 283.8 mg/dL | Ht [5]: 40.4% | Lym [5]: 72.5% | MCHC [5]: 32.8% | MCV [5]: 63.6 fL | Mono [5]: 3.2% | PT [5]: 15.8 s | Plat [5]: 110.1 x10_4/uL | RBC [5]: 635.8 x10_4/ul | Ret [5]: 8.6% | WBC [5]: 79.2 x10_2/uL | KIDNEY_L [5]: 0.9 g | KIDNEY_R [5]: 0.9 g | KIDNEY_TOTAL [5]: 1.8 g | LIVER [5]: 9.4 g | ALP [5]: 1336.2 IU/L | ALT [5]: 45 IU/L | AST [5]: 73.5 IU/L | BUN [5]: 6.8 mg/dL | CRE [5]: 0.1 mg/dL | DBIL [5]: 0.0125 mg/dL | GLC [5]: 190.8 mg/dL | IP [5]: 10 mg/dL | K [5]: 3.9 meq/L | LDH [5]: 61 IU/L | PL [5]: 138 mg/dL | RALB [5]: 2.5 g/dL | TBIL [5]: 0.07 mg/dL | TC [5]: 69 mg/dL | TP [5]: 5.3 g/dL | gamma-GTP [5]: 1.2 IU/L | TERMINAL_BW [6]: 200.3 g | APTT [6]: 15.9 s | Bas [6]: 0% | Eos [6]: 0.8% | Fbg [6]: 299.4 mg/dL | Ht [6]: 42.4% | Lym [6]: 71.2% | MCHC [6]: 32.2% | MCV [6]: 66.2 fL | Mono [6]: 3% | PT [6]: 15.8 s | Plat [6]: 108.9 x10_4/uL | RBC [6]: 641.6 x10_4/ul | Ret [6]: 8.3% | WBC [6]: 74.4 x10_2/uL | KIDNEY_L [6]: 0.9 g | KIDNEY_R [6]: 0.9 g | KIDNEY_TOTAL [6]: 1.8 g | ALP [6]: 1251.8 IU/L | ALT [6]: 37 IU/L | AST [6]: 64.2 IU/L | BUN [6]: 6.4 mg/dL | CRE [6]: 0.1 mg/dL | DBIL [6]: 0.01 mg/dL | GLC [6]: 182 mg/dL | IP [6]: 9.9 mg/dL | K [6]: 4 meq/L | LDH [6]: 62.8 IU/L | RALB [6]: 2.5 g/dL | TBIL [6]: 0.062 mg/dL | TC [6]: 83.8 mg/dL | TP [6]: 5.4 g/dL | gamma-GTP [6]: 1.2 IU/L | TERMINAL_BW [7]: 199.8 g | APTT [7]: 16.1 s | Bas [7]: 0.2% | Eos [7]: 0.8% | Fbg [7]: 309.4 mg/dL | Ht [7]: 42% | Lym [7]: 73% | MCHC [7]: 32.2% | MCV [7]: 66.8 fL | Mono [7]: 2.4% | PT [7]: 15.8 s | Plat [7]: 111.5 x10_4/uL | RBC [7]: 629.2 x10_4/ul | Ret [7]: 8.8% | WBC [7]: 70.8 x10_2/uL | KIDNEY_L [7]: 0.9 g | KIDNEY_R [7]: 0.9 g | KIDNEY_TOTAL [7]: 1.8 g | LIVER [7]: 8.3 g | ALP [7]: 1131.2 IU/L | ALT [7]: 35.6 IU/L | AST [7]: 63.6 IU/L | BUN [7]: 5.2 mg/dL | CRE [7]: 0.1 mg/dL | GLC [7]: 179.2 mg/dL | IP [7]: 10.2 mg/dL | K [7]: 4.1 meq/L | LDH [7]: 59.2 IU/L | RALB [7]: 2.5 g/dL | TBIL [7]: 0.056 mg/dL | TC [7]: 80.8 mg/dL | TP [7]: 5.4 g/dL | gamma-GTP [7]: 1 IU/L | TERMINAL_BW [8]: 198.2 g | APTT [8]: 16 s | Bas [8]: 0% | Eos [8]: 0.6% | Fbg [8]: 293.2 mg/dL | Ht [8]: 42.6% | Lym [8]: 82.6% | MCHC [8]: 32.4% | MCV [8]: 65.1 fL | Mono [8]: 2% | PT [8]: 16.6 s | Plat [8]: 116.4 x10_4/uL | RBC [8]: 655.2 x10_4/ul | Ret [8]: 7.3% | WBC [8]: 49 x10_2/uL | KIDNEY_L [8]: 0.9 g | KIDNEY_R [8]: 0.9 g | KIDNEY_TOTAL [8]: 1.8 g | LIVER [8]: 8.1 g | ALP [8]: 1350.6 IU/L | ALT [8]: 35.4 IU/L | AST [8]: 61 IU/L | BUN [8]: 12.8 mg/dL | CRE [8]: 0.2 mg/dL | DBIL [8]: 0.02 mg/dL | GLC [8]: 176.4 mg/dL | IP [8]: 8.2 mg/dL | K [8]: 4.5 meq/L | LDH [8]: 62.8 IU/L | PL [8]: 137.8 mg/dL | RALB [8]: 2.6 g/dL | TBIL [8]: 0.062 mg/dL | TC [8]: 83.2 mg/dL | TP [8]: 5.6 g/dL | gamma-GTP [8]: 1.2 IU/L
